The IC50 is the concentration that gives 50% inhibition.

For 10 molecules, IC50 results are on record in patent publication US12351571B2, “Substituted quinoxaline compounds as inhibitors of FGFR tyrosine kinases” (ARRAY BIOPHARMA INC., priority 2018, dated 2025).

Assay [1] addresses dephosphorylated FGFR2 (Homo sapiens (Human), UniProt P21802). The assay can be described thus: FGFR Enzyme Binding Assay (HTRF tracer displacement), FGFR2. Particulars: 5 nM dephosphorylated FGFR2, 60 minute incubation at 22° C.; read-out: FGFR2 Enz Binding IC50. The method, then:
The potency of compounds inhibiting human isoforms of FGFR kinase was determined using Life Technologies' Homogeneous Time Resolved Fluorescence (HTRF)-based binding assay technology. An incubation was conducted with either 5 nM dephosphorylated FGFR1 (Array Biopharma, p1702; SEQ ID NO: 1, amino acids 458 to 765, dephosphorylated by co-expression with PTP1b (protein tyrosine phosphatase 1B)), 5 nM dephosphorylated FGFR2 (Life Technologies, Cat. No. PV4106 that had been dephosphorylated with Lambda protein phosphatase (New England Biolabs, cat #P0753)) or 5 nM phosphorylated FGFR3 (Array Biopharma, p1836; SEQ ID NO: 5, amino acids 449 to 759), 50 nM Kinase Tracer 236 (Life Technologies Cat. No. PR9078A), 2 nM Biotin-anti-6HIS (Life Technologies Cat. No. PV6090) and 2 nM Europium-Streptavidin (Life Technologies Cat. No. PV6025) along with test compound in a buffer consisting of 50 mM HEPES ((4-(2-hydroxyethyl)-1-piperazineethanesulfonic acid, pH 7.5), 5 mM MgCl2, 0.005% Triton X-100, 1 mM DTT, 1 mM NaVO4 and 2% DMSO in a final volume of 12 μL Compounds were typically prepared as a 3-fold or 4-fold serial dilution in DMSO and added to the assay to give the appropriate final concentration. After a 60 minute incubation at 22° C., the extent of tracer displacement was determined using a PerkinElmer EnVision multimode plate reader via HTRF dual wavelength detection, and the percent of control (POC) was calculated using a ratiometric emission factor. One hundred POC was determined using no test compound, and 0 POC was determined in the presence of 1 μM of an appropriate control inhibitor. A 4-parameter logistic curve was fit to the POC values as a function of the concentration of compound, and the IC50 value was the point where the best-fit curve crossed 50 POC.
(Time-resolved FRET reads energy transfer from a long-lived donor to a nearby acceptor.)

The target of assay [2] is human wild type FGFR2 (Homo sapiens (Human), UniProt P21802). The assay can be described thus: FGFR2 pFGFR Cell Assay. It is filed as cell-based. Particulars: HEK-293 cells, 1 hour compound, 30 ng/ml human FGF-acidic, ELISA. The method, then:
(§1) HEK-293 cells transfected with dox-inducible human wild type FGFR2 (SEQ ID NO: 3) were plated in a collagen or poly-D-lysine coated 96 well flat bottom plates at 4×10^5 cells/well in complete DMEM medium containing 10% FBS and 1 μg/ml doxycycline and allowed to attach for 24 h at 37° C., 5% CO2. Cells were treated with compound using 1:3 serial dilutions with a maximum final concentration of 5 μM. Compound was incubated on cells for 1 hour at 37° C., 5% CO2. Cells were then stimulated with a final concentration of 30 ng/ml human FGF-acidic (R&D Systems Cat number 232-FA/CF) for 5 minutes at 37° C., 5% CO2. Medium was removed and cells were lysed with lysis buffer containing phosphatase and protease inhibitors. Phospho FGFR2 was measured by ELISA (R&D Systems cat. no. DYC684). The ELISA captures total FGFR2 and detects total phospho tyrosine. Optical density was measured for each well using a Versamax reader at a wavelength of 450 nm. 100 POC was determined using no test compounds and 0 POC was determined using a control compound. The POC values were fit to a 4-parameter logistic curve as a function of the concentration of the compound, and the IC50 value is the point where the curve crosses 50 POC.
Background: In an ELISA, binding on a coated surface is turned into a signal by an enzyme label.

The target in assay [3] is human wild type FGFR3 (Homo sapiens (Human), UniProt P22607). The assay can be described thus: FGFR3 pFGFR Cell Assay. It is filed as cell-based. Particulars: HEK-293 cells, 1 hour compound, 100 ng/ml human FGF-acidic, ELISA. As to the method:
as §1, with “FGFR3” for “FGFR2”, “5)” for “3)”, “top” for “maximum”, “100” for “30”, “FGF-acidic” for “FGF-acidic (R&D Systems Cat number 232-FA/CF)”, “cat DYC2719).” for “cat. no. DYC684).”

Chain of human wild type FGFR3 (P22607 23-806): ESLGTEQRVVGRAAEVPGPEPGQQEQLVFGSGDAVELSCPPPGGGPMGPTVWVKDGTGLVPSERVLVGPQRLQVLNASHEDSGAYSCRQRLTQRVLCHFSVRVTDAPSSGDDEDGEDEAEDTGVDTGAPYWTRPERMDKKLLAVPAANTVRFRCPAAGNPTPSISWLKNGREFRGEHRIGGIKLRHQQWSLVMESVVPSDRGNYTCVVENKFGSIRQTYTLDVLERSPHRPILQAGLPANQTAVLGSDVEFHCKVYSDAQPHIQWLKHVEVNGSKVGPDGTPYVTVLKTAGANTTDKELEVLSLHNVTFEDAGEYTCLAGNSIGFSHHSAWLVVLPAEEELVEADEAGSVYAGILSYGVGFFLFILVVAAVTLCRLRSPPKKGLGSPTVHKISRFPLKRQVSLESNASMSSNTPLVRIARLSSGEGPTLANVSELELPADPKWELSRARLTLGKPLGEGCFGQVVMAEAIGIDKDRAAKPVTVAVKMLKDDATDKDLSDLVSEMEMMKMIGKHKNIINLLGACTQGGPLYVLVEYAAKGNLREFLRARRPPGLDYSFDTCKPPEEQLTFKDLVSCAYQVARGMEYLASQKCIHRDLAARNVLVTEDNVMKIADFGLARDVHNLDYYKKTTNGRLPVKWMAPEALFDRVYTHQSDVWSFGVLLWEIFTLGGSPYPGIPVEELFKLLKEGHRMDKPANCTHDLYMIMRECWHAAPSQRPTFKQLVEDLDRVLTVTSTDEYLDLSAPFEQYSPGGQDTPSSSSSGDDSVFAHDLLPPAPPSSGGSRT
Chain of dephosphorylated FGFR2 (P21802 22-821): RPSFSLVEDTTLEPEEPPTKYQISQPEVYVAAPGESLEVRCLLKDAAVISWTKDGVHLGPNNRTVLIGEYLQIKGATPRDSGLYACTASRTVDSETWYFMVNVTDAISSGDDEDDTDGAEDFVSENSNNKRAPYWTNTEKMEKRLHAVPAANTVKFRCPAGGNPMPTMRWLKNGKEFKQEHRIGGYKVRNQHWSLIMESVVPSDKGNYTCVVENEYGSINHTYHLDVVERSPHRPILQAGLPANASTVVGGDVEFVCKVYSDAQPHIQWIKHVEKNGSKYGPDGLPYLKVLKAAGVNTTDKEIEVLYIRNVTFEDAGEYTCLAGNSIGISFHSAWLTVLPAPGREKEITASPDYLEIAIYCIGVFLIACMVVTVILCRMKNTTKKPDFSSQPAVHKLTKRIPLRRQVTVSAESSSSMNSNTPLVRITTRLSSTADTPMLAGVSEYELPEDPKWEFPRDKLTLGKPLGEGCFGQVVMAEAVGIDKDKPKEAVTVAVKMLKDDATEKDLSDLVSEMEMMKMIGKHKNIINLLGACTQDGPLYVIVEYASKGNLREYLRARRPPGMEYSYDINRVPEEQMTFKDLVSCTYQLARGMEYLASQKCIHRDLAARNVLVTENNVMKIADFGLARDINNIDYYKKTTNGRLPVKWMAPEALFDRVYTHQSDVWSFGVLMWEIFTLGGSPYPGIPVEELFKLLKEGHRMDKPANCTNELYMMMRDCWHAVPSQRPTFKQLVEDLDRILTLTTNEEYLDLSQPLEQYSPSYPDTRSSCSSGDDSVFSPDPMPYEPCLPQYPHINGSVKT
Chain of human wild type FGFR2 (P21802 22-821): as above

For `C=CC(=O)N1CC[C@@H](C(=O)N2CCC(n3cc(-c4cnc5ccc(Nc6cc(OC)cc(OC)c6)cc5n4)cn3)CC2)C1` [Example 2, (R)-1-(3-(4-(4-(7-((3,5-dimethoxyphenyl)amino)-quinoxalin-2-yl)-1H-pyrazol-1-yl)piperidine-1-carbonyl)pyrrolidin-1-yl)-prop-2-en-1-one], the IC50 was determined as 0.006 µM in assay [1], 0.117 µM in assay [2] and 0.121 µM in assay [3].
Consider `COc1cc(Nc2ccc3ncc(-c4ccc(N5CCN(C(=O)C6(F)CN(C(=O)/C=C/CN(C)C)C6)CC5)nc4)nc3c2)cc(OC)c1` [Example 7, (E)-1-(3-(4-(5-(7-((3,5-dimethoxyphenyl)amino)-quinoxalin-2-yl)pyridin-2-yl)piperazine-1-carbonyl)-3-fluoroazetidin-1-yl)-4-(dimethylamino)but-2-en-1-one], for which the IC50 is 0.018 µM in assay [1] and 0.182 µM in assay [2].
For `C=CC(=O)N1CCC(C(=O)N2CCC(n3cc(-c4cnc5ccc(Nc6cc(OC)cc(OC)c6)cc5n4)cn3)CC2)CC1` [Example 3, 1-(4-(4-(4-(7-((3,5-dimethoxyphenyl)amino)-quinoxalin-2-yl)-1H-pyrazol-1-yl)piperidine-1-carbonyl)piperidin-1-yl)prop-2-en-1-one], the IC50 in assay [1] is 0.005 µM; in assay [2] it was 0.069 µM; in assay [3] it was 0.089 µM.
As to `C=CC(=O)N1CC(OC)(C(=O)N2CCC(n3cc(-c4cnc5ccc(Nc6cc(OC)cc(OC)c6)cc5n4)cn3)CC2)C1` [Example 24, 1-(3-(4-(4-(7-((3,5-dimethoxyphenyl)amino)-quinoxalin-2-yl)-1H-pyrazol-1-yl)piperidine-1-carbonyl)-3-methoxy-azetidin-1-yl)prop-2-en-1-one], the IC50 in assay [1] is 0.008 µM; in assay [2], 0.049 µM.
The like results for `C=CC(=O)N1CC(CN2CCC(n3cc(-c4cnc5ccc(Nc6cc(OC)cc(OC)c6)cc5n4)cn3)CC2)C1` [Example 30, 1-(3-((4-(4-(7-((3,5-dimethoxyphenyl)amino)quinoxalin-2-yl)-1H-pyrazol-1-yl)piperidin-1-yl)methyl)azetidin-1-yl)prop-2-en-1-one] were, in that order, 0.005 µM and 0.062 µM.
Take `C=CC(=O)N1CC(C(=O)N2CCC(n3cc(-c4cnc5ccc(Nc6cc(OC)cc(OC)c6)cc5n4)cn3)CC2)C1` [Example 1, 1-(3-(4-(4-(7-((3,5-dimethoxyphenyl)amino)quinoxalin-2-yl)-1H-pyrazol-1-yl)piperidine-1-carbonyl)azetidin-1-yl)prop-2-en-1-one]: the results for the IC50 in assay [1], in assay [2] and in assay [3] were 0.003 µM, 0.14 µM and 0.035 µM, respectively.
With `COc1cc(Nc2ccc3ncc(-c4cn(C5CCN(C(=O)C6(F)CN(C(=O)/C=C/CN(C)C)C6)CC5)nc4C)nc3c2)cc(OC)c1` [Example 22, (E)-1-(3-(4-(4-(7-((3,5-dimethoxyphenyl)amino)-quinoxalin-2-yl)-3-methyl-1H-pyrazol-1-yl)-piperidine-1-carbonyl)-3-fluoroazetidin-1-yl)-4-(dimethylamino)but-2-en-1-one], the IC50 in assay [1] was 0.019 µM; in assay [2], 0.301 µM.
The corresponding values for `C=CC(=O)N1CC(CN2CCC(n3cc(-c4cnc5ccc(Nc6cc(OC)cc(OC)c6)cc5n4)cn3)CC2)(OC)C1` [Example 29, 1-(3-((4-(4-(7-((3,5-dimethoxyphenyl)amino)quinoxalin-2-yl)-1H-pyrazol-1-yl)piperidin-1-yl)methyl)-3-methoxyazetidin-1-yl)prop-2-en-1-one] are 0.005 µM and 0.056 µM.
The like results for `C#CCN(c1cc(OC)cc(OC)c1)c1ccc2ncc(-c3cnn(C4CCN(C(=O)C5(F)CN(C(=O)/C=C/CN(C)C)C5)CC4)c3)nc2c1` [Example 28, (E)-1-(3-(4-(4-(7-((3,5-dimethoxyphenyl)(prop-2-yn-1-yl)amino)quinoxalin-2-yl)-1H-pyrazol-1-yl)piperidine-1-carbonyl)-3-fluoroazetidin-1-yl)-4-(dimethylamino)but-2-en-1-one] were, in that order, 0.003 µM and 0.006 µM.
Regarding `C=CC(=O)N1CC(F)(C(=O)N2CCC(n3cc(-c4cnc5ccc(Nc6cc(OC)cc(OC)c6)cc5n4)cn3)CC2)C1` [Example 4, 1-(3-(4-(4-(7-((3,5-dimethoxyphenyl)amino)-quinoxalin-2-yl)-1H-pyrazol-1-yl)piperidine-1-carbonyl)-3-fluoro-azetidin-1-yl)prop-2-en-1-one], the results for the IC50 in assay [1] and in assay [3] were 0.004 µM and 0.017 µM, respectively.
